Measurements reported in paper PMC7026882, “Macrofilaricidal Benzimidazole–Benzoxaborole Hybrids as an Approach to the Treatment of River Blindness: Part 2. Ketone Linked Analogs” (ACS Infectious Diseases, 2019).
Like-named read-outs stand apart in the source and are kept apart here.

How the values were obtained:
[1] = system: mammalian tubulin (G2/M arrest); experiment: G2/M arrest assay, indicative of interaction with mammalian tubulin; format: cell-based
Excerpt: (§1) As summarized in Table 1, we were encouraged to find that the initial ketone analogs prepared, namely, 15 (6-linked) and 20 (5-linked), were quite active in an O. volvulus molting assay we used as a primary indicator of antiparasitic activity[30],[31] and were only weakly active in a G2/M arrest,[32] indicative of the interaction with mammalian tubulin. As described above, our hypothesis was to reduce Pgp efflux liability through elimination of the hydrogen-bond donor associated with the N–H of the amide linker, as this has been shown in the literature to be a contributor to recognition by Pgp.[33],[34] […] We were disappointed to find that the 5-linked analog 22 was poorly selective and the 6-linked analog 23 was only weakly active.

[2] = Metabolic stability (Clint) in gerbil microsomes; format: in vitro ADME
Excerpt: as §1

P-gp (MDR1) = experiment: MDCK-MDR1 cell monolayer permeability assay; format: in vitro ADME; settings: dog
Excerpt: as §1

[3] = Pharmacokinetics in Mongolian gerbils; format: in vivo; settings: blood, Mongolian gerbils; for AUC(0-t): read-out: AUC0–24; for Cmax: read-out: Cmax; for bioavailability: po, read-out: bioavailability (%F)
Excerpt: In addition, the concentrations achieved at these doses were well in excess of the O. volvulus IC50, a requirement for in vivo activity that we had hypothesized on the basis of earlier work in the amide-linked series.

O. volvulus = O. volvulus molting assay; format: cell-based; settings: Onchocerca volvulus; for IC50: molting assay
Excerpt: as §1, with “active. […]” for “active.”
(§2) in comparison to the number of control larvae that had successfully molted. IC50 values were calculated using GraphPad Prism v6.0 (http://www.graphpad.com). See Bullman et al., PLoS
(§3) Negl. Trop. Dis., 2015, 9, e3534 for further details.
(§4) Adult Brugia malayi in vivo model procedure.
(§5) Gerbils (Meriones unguiculatus) were infected by transplantation of 10 male and 10 female adult Brugia malayi into the peritoneal cavity. Gerbils were acclimated for 7 days prior to treatment. Animals were dosed based on their body weight prior to each dosing. Animals were administered their doses at the same time each day and receive standard rodent laboratory diet and water ad libitum. Gerbils were humanely euthanized at the conclusion of each study.
(§6) Peritoneal counts of male and female adult B. malayi and visual condition of the peritoneum […]
(§7) L3 Brugia pahangi in vivo model procedure.
(§8) Male gerbils (Meriones unguiculatus) approximately 6 weeks of age (50-60 g) were purchased from Charles Rivers (USA, Kingston K62 Gerbils) and infected by intraperitoneal injection with 200 Brugia pahangi third-stage larvae (L3) per animal (Filariatech, Inc., Athens, GA). Gerbils were housed with no more than 5 animals per cage and maintained 9 months prior to treatment. All gerbils were dosed in accordance with their body weight determined prior to each dosing. Animals were administered their doses at the same time each day and are allowed to feed and drink ad libitum. Gerbils were euthanized following approved institutional protocols. Euthanized animals were weighed and examined for external and visceral pathologies. The adult Brugia worms were recovered by opening the body cavity and washing the peritoneal cavity with 100 mL of phosphate buffered saline. Male and female worms were counted using a dissecting microscope.
(§9) Litomosoides sigmodontis in vivo model procedure. 2
(§10) All animal experiments with L. sigmodontis were conducted at the Institute for Medical Microbiology, Immunology and Parasitology (IMMIP), University Hospital of Bonn, in accordance to the European Union animal welfare guidelines. All protocols were approved by the local authorities (Landesamt für Natur, Umwelt und Verbraucherschutz, Cologne, Germany (AZ 84- […]
(§11) Janvier (Saint-Berthevin, France) and were housed at the animal facility of the IMMIP in individually ventilated cages on a 12h light/dark cycle with food and water ad libidum. Mice were infected at 6-8 weeks of age via exposure to the natural mite vector Ornithonyssus bacoti

[4] = Metabolic stability (Clint) in human microsomes; format: in vitro ADME
Excerpt: as §1

Brugia pahangi = experiment: In vivo efficacy in the L3 Brugia pahangi gerbil model
Protocol: For our in vivo model, gerbils were infected by injecting B. pahangi third-stage larvae (L3) that were subsequently allowed to develop to adult worms over several months. Once stable infections had been established, 21 was administered as a suspension via once-daily oral gavage at a dose of 100 mg/kg for 7, 14, or 28 days. All animals were maintained until day 63 after the start of dosing, at which time adult worms were recovered from the peritoneal cavity and microfilariae were quantified in blood samples. Flubendazole (5 mg/kg, SC × 5 days) was included as a positive control in this study. […]
as §2, §3, §4, §5, §6, §7, §8, §9, §10, §11

[5] = system: LF (lymphatic filariasis); set-up: method as in PMID 30650084; settings: by route of administration; cited from earlier work
[6] = system: P-glycoprotein transporter (Pgp); set-up: method as in PMID 30650084; settings: limits oral bioavailability; cited from earlier work
[7] = SC, 10 mg/kg, 5 days, QD, positive control

SMILES	IC50 [1] [nM]	microsomal CLint [2] [µL/min/mg]	Papp A→B (P-gp (MDR1)) [×10⁻⁶ cm/s]	IC50 (O. volvulus) [nM]	microsomal CLint [4] [µL/min/mg]	also measured
COC(=O)Nc1nc2cc(C(=O)c3ccc4c(c3)B(O)OC4)ccc2[nH]1 [compound 15]	12300	8.25	6	118	–	AUC(0-t) ([3]; 2 mg/kg, dose 2, IV): 880 ng·h/mL; Cmax ([3]; 2 mg/kg, dose 2, IV): 2260 ng/mL; AUC(0-t) ([3]; 10 mg/kg, dose 10, PO): 790 ng·h/mL; Cmax ([3]; 10 mg/kg, dose 10, PO): 270 ng/mL; bioavailability ([3]; 10 mg/kg, dose 10, PO): 18%
COC(=O)Nc1nc2cc(C(=O)CCc3ccc4c(c3)B(O)OC4(C)C)ccc2[nH]1 [compound 32]	460	26.7	16	290	7.63	–
COC(=O)Nc1nc2cc(C(=O)c3cccc4c3B(O)O[C@H]4C)ccc2[nH]1 (single isomer, unassigned) [compound 30]	12200	< 4	34.3	110	< 4	AUC(0-t) ([3]; 2 mg/kg, dose 2, IV): 14600 ng·h/mL; Cmax ([3]; 2 mg/kg, dose 2, IV): 7580 ng/mL; AUC(0-t) ([3]; 10 mg/kg, dose 10, PO): 141000 ng·h/mL; Cmax ([3]; 10 mg/kg, dose 10, PO): 14000 ng/mL; bioavailability ([3]; 10 mg/kg, dose 10, PO): ~100%
COC(=O)Nc1nc2ccc(C(=O)c3ccc4c(c3)B(O)OC4(C)C)cc2[nH]1 [compound 23]	> 100000	–	20.7	> 1000	–	inhibition at 1 µM (O. volvulus): 0%
COC(=O)Nc1nc2ccc(C(=O)c3cc(F)cc4c3B(O)OC4)cc2[nH]1 [compound 27]	22000	< 4	32	270	< 4	–
COC(=O)Nc1nc2ccc(C(=O)c3c(F)ccc4c3B(O)OC4)cc2[nH]1 [compound 28]	> 100000	–	–	1310	–	–
COC(=O)Nc1nc2cc(C(=O)c3ccc(F)cc3)ccc2[nH]1 [compound 3, flubendazole, reference compound]	670	< 4	–	4	–	Number of Worms Recovered, Avg Female Worms (Brugia pahangi; [7]): 0.0; Number of Worms Recovered, Avg Male Worms (Brugia pahangi; [7]): 0.0; worms recovered from positive control group (Brugia pahangi; given SC): no worms recovered; Papp A→B (P-gp (MDR1); A-B, read-out: MDCK-MDR1 Papp (A-B)): 15.6 ×10⁻⁶ cm/s
COC(=O)Nc1nc2cc(C(=O)CCCc3ccc4c(c3)B(O)OC4(C)C)ccc2[nH]1 [compound 33]	20	–	–	–	–	–
COC(=O)Nc1nc2cc(C(=O)c3cccc4c3B(O)O[C@@H]4C)ccc2[nH]1 (single isomer, unassigned) [compound 29]	5600	< 4	57.2	100	< 4	–
COC(=O)Nc1nc2cc(C(=O)NCc3ccc4c(c3)B(O)OC4(C)C)ccc2[nH]1 [compound 4]	–	–	–	–	–	activity in in vivo models of LF [5]: only active in in vivo models of LF following subcutaneous administration; efflux via P-glycoprotein transporter (Pgp) [6]: subject to efflux
COC(=O)Nc1nc2ccc(C(=O)c3ccc(F)c4c3B(O)OC4)cc2[nH]1 [compound 26]	30300	11.6	21.7	20	11.1	AUC(0-t) ([3]; 2 mg/kg, dose 2, IV): 18600 ng·h/mL; Cmax ([3]; 2 mg/kg, dose 2, IV): 10900 ng/mL; AUC(0-t) ([3]; 10 mg/kg, dose 10, PO): 23500 ng·h/mL; Cmax ([3]; 10 mg/kg, dose 10, PO): 1690 ng/mL; bioavailability ([3]; 10 mg/kg, dose 10, PO): 24%
COC(=O)Nc1nc2cc(C(=O)c3cccc4c3COB4O)ccc2[nH]1 [compound 19]	> 100000	–	28.3	1590	5.56	–
COC(=O)Nc1nc2cc(C(=O)c3ccc4c(c3)COB4O)ccc2[nH]1 [compound 20]	9800	11.7	11.7	112	–	AUC(0-t) ([3]; 2 mg/kg, dose 2, IV): 1160 ng·h/mL; Cmax ([3]; 2 mg/kg, dose 2, IV): 2000 ng/mL; AUC(0-t) ([3]; 10 mg/kg, dose 10, PO): 990 ng·h/mL; Cmax ([3]; 10 mg/kg, dose 10, PO): 480 ng/mL; bioavailability ([3]; 10 mg/kg, dose 10, PO): 17%
COC(=O)Nc1nc2cc(C(=O)c3ccc4c(c3)B(O)O[C@@H]4C)ccc2[nH]1 (single isomer, unassigned) [compound 24]	> 100000	–	–	> 1000	–	inhibition at 1 µM (O. volvulus): 2%
COC(=O)Nc1nc2cc(C(=O)c3ccc4c(c3)B(O)O[C@H]4C)ccc2[nH]1 (single isomer, unassigned) [compound 25]	> 100000	< 4	15.5	40	< 4	–
COC(=O)Nc1nc2cc(C(=O)c3ccc4c(c3)C(C)(C)OB4O)ccc2[nH]1 [compound 22]	280	–	26.2	10	–	–
COC(=O)Nc1nc2ccc(C(=O)c3ccc(Cl)c4c3B(O)OC4)cc2[nH]1 [compound 31]	11600	< 4	28	30	< 4	–
